Reference: PubChem BioAssay AID248 (DTP/NCI, 2004)
Inconclusive results and toxic doses are left out. No stated cut-off is given here; in the data, active means T/C of 150% or more; inactive means T/C below 125%.

System: L1210 leukemia ip in BDF1 mice, survival T/C
Experiment: NCI In Vivo Anticancer Drug Screen. Data for tumor model L1210 Leukemia (intraperitoneal) in B6D2F1 (BDF1) mice
Conditions: endpoint: mean survival time, higher = longer survival
Method in brief: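 Tumor cells were implanted, animals were treated, and survival was followed. The result divides the treated measurement by the vehicle-control measurement.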

[1] = dose: 100.0 mg/kg/injection, schedule: Q04DX003 (ip), vehicle: saline with Tween-80
[2] = dose: 200.0 mg/kg/injection, schedule: Q04DX003 (ip), vehicle: saline with Tween-80
[3] = dose: 400.0 mg/kg/injection, schedule: Q04DX003 (ip), vehicle: saline with Tween-80
[4] = dose: 100.0 mg/kg/injection, schedule: Q01DX009 (ip), vehicle: saline with Tween-80
[5] = dose: 200.0 mg/kg/injection, schedule: Q01DX009 (ip), vehicle: saline with Tween-80
[6] = dose: 100.0 mg/kg/injection, schedule: Q01DX001 (ip), vehicle: saline
[7] = dose: 200.0 mg/kg/injection, schedule: Q01DX001 (ip), vehicle: saline
[8] = dose: 400.0 mg/kg/injection, schedule: Q01DX001 (ip), vehicle: saline
[9] = dose: 100.0 mg/kg/injection, schedule: Q01DX009 (ip), vehicle: saline
[10] = dose: 200.0 mg/kg/injection, schedule: Q01DX009 (ip), vehicle: saline
[11] = dose: 400.0 mg/kg/injection, schedule: Q01DX009 (ip), vehicle: saline
[12] = dose: 100.0 mg/kg/injection, schedule: Q04DX003 (ip), vehicle: Klucel (hydroxypropylcellulose) (HPC)
[13] = dose: 200.0 mg/kg/injection, schedule: Q04DX003 (ip), vehicle: Klucel (hydroxypropylcellulose) (HPC)
[14] = dose: 400.0 mg/kg/injection, schedule: Q04DX003 (ip), vehicle: Klucel (hydroxypropylcellulose) (HPC)
[15] = dose: 400.0 mg/kg/injection, schedule: Q01DX009 (ip), vehicle: saline with Tween-80
[16] = dose: 100.0 mg/kg/injection, schedule: Q01DX009 (ip), vehicle: Klucel (hydroxypropylcellulose) (HPC)
[17] = dose: 200.0 mg/kg/injection, schedule: Q01DX009 (ip), vehicle: Klucel (hydroxypropylcellulose) (HPC)
[18] = dose: 100.0 mg/kg/injection, schedule: Q04DX003 (ip), vehicle: saline
[19] = dose: 200.0 mg/kg/injection, schedule: Q01DX001 (ip), vehicle: carboxymethylcellulose (CMC)
[20] = dose: 400.0 mg/kg/injection, schedule: Q01DX001 (ip), vehicle: carboxymethylcellulose (CMC)
[21] = dose: 100.0 mg/kg/injection, schedule: Q04DX002 (ip), vehicle: saline with Tween-80
[22] = dose: 200.0 mg/kg/injection, schedule: Q04DX002 (ip), vehicle: saline with Tween-80
[23] = dose: 400.0 mg/kg/injection, schedule: Q04DX002 (ip), vehicle: saline with Tween-80
[24] = dose: 50.0 mg/kg/injection, schedule: Q01DX009 (ip), vehicle: Klucel (hydroxypropylcellulose) (HPC)

Measured: T/C

COc1cc(Br)c(CC2c3cc(OC)c(OC)cc3CC[N+]2(C)C)cc1OC (configuration not stated)
inactive: dose: 100.0 mg/kg/injection, schedule: Q01DX001 (ip), vehicle: water 100 % of control | dose: 100.0 mg/kg/injection, schedule: Q01DX009 (ip), vehicle: water 101 % of control | dose: 100.0 mg/kg/injection, schedule: Q04DX003 (ip), vehicle: water 100 % of control | dose: 200.0 mg/kg/injection, schedule: Q01DX001 (ip), vehicle: water 102 % of control | dose: 200.0 mg/kg/injection, schedule: Q01DX009 (ip), vehicle: water 87 % of control | dose: 200.0 mg/kg/injection, schedule: Q04DX003 (ip), vehicle: water 97 % of control | dose: 400.0 mg/kg/injection, schedule: Q01DX001 (ip), vehicle: water 100 % of control | dose: 400.0 mg/kg/injection, schedule: Q04DX003 (ip), vehicle: water 91 % of control

CN(C)C=Nc1ccc([N+](=O)[O-])c2ccccc12
inactive: [1] 103 % of control | [2] 106 % of control | [3] 104 % of control

O=[N+]([O-])c1ccc(/C=N/c2ncc(Br)s2)o1
inactive: dose: 50.0 mg/kg/injection, schedule: Q01DX009 (ip), vehicle: saline with Tween-80 102 % of control | [4] 98 % of control | [1] 111 % of control | [2] 111 % of control

CC(C)C[C@H]1C(=O)N2CCC[C@H]2[C@]2(O)O[C@](NC(=O)[C@@H]3C=C4c5cccc6[nH]c(Br)c(c56)C[C@H]4N(C)C3)(C(C)C)C(=O)N12
inactive: [4] 105 % of control | [5] 106 % of control

CC(=O)NNc1ccc([N+](=O)[O-])cn1
inactive: [6] 100 % of control | [7] 100 % of control | [8] 100 % of control

NNC(=O)CCO
inactive: [6] 103 % of control | [9] 89 % of control | [7] 105 % of control | [10] 100 % of control | [8] 94 % of control | [11] 96 % of control

Nc1c(Br)cc([N+](=O)[O-])cc1Br
inactive: [12] 111 % of control | [13] 95 % of control | [14] 105 % of control

CC(C)CC(=O)Nc1ccc(S(=O)(=O)Cl)cc1
inactive: [4] 106 % of control | [1] 92 % of control | [5] 101 % of control | [2] 86 % of control | [15] 94 % of control | [3] 89 % of control

O=Cc1cc(C(=O)c2ccccn2)c2cc(Cl)cc(Cl)c2n1
inactive: dose: 100.0 mg/kg/injection, schedule: Q01DX001 (ip), vehicle: Klucel (hydroxypropylcellulose) (HPC) 94 % of control | [16] 107 % of control | dose: 200.0 mg/kg/injection, schedule: Q01DX001 (ip), vehicle: Klucel (hydroxypropylcellulose) (HPC) 89 % of control | [17] 96 % of control | dose: 400.0 mg/kg/injection, schedule: Q01DX001 (ip), vehicle: Klucel (hydroxypropylcellulose) (HPC) 94 % of control

O=C1OC(=O)c2c(Br)cccc21
inactive: dose: 5.0 mg/kg/injection, schedule: Q04DX003 (ip), vehicle: Klucel (hydroxypropylcellulose) (HPC) 102 % of control | dose: 10.0 mg/kg/injection, schedule: Q04DX003 (ip), vehicle: Klucel (hydroxypropylcellulose) (HPC) 100 % of control | dose: 20.0 mg/kg/injection, schedule: Q04DX003 (ip), vehicle: Klucel (hydroxypropylcellulose) (HPC) 114 % of control

CCN1CCC(CCOC)(CN2c3ccccc3Sc3ccc(Cl)cc32)C1 (configuration not stated)
inactive: [18] 89 % of control

O=C(CCl)c1ccc2c(c1)Nc1ccccc1S2
inactive: dose: 50.0 mg/kg/injection, schedule: Q01DX001 (ip), vehicle: carboxymethylcellulose (CMC) 93 % of control | [19] 93 % of control | [20] 96 % of control

COc1c(Cl)cc([N+](=O)[O-])c(OC)c1[N+](=O)[O-]
inactive: dose: 50.0 mg/kg/injection, schedule: Q01DX009 (ip), vehicle: acetone 90 % of control | dose: 50.0 mg/kg/injection, schedule: Q04DX003 (ip), vehicle: saline 98 % of control | dose: 100.0 mg/kg/injection, schedule: Q01DX001 (ip), vehicle: acetone 94 % of control | dose: 100.0 mg/kg/injection, schedule: Q01DX009 (ip), vehicle: acetone 90 % of control | [18] 93 % of control | dose: 200.0 mg/kg/injection, schedule: Q01DX001 (ip), vehicle: acetone 98 % of control

O=c1cccc(CCCCCCc2cccc(=O)[nH]2)[nH]1
inactive: [6] 106 % of control | [7] 95 % of control | [8] 96 % of control

CCCCCCCCC1OC1CCCCCCCC(N)=O (configuration not stated)
inactive: [21] 92 % of control | [22] 88 % of control | [23] 100 % of control

CCCCCCCCC1C(CCCCCCCC(=O)OC)SC(F)(F)C1(F)F (configuration not stated)
inactive: [4] 95 % of control | [5] 93 % of control | [15] 102 % of control

Cc1cc(N(CCCl)CCCl)ccc1C=Nc1cc(Cl)c(O)c(Cl)c1
inactive: dose: 100.0 mg/kg/injection, schedule: Q01DX001 (ip), vehicle: carboxymethylcellulose (CMC) 96 % of control | [19] 96 % of control | [20] 105 % of control

Cc1cccn2c(=O)cc(O)nc12
inactive: dose: 50.0 mg/kg/injection, schedule: Q01DX001 (ip), vehicle: saline 112 % of control | [6] 110 % of control | [7] 116 % of control | [8] 103 % of control

O=C(COc1ccc(Cl)cc1Cl)Nc1ccc(NC(=O)COc2ccc(Cl)cc2Cl)cc1
inactive: dose: 12.5 mg/kg/injection, schedule: Q01DX009 (ip), vehicle: Klucel (hydroxypropylcellulose) (HPC) 87 % of control | dose: 12.5 mg/kg/injection, schedule: Q04DX002 (ip), vehicle: Klucel (hydroxypropylcellulose) (HPC) 95 % of control | dose: 25.0 mg/kg/injection, schedule: Q01DX009 (ip), vehicle: Klucel (hydroxypropylcellulose) (HPC) 94 % of control | dose: 25.0 mg/kg/injection, schedule: Q04DX002 (ip), vehicle: Klucel (hydroxypropylcellulose) (HPC) 95 % of control | [24] 87 % of control | dose: 50.0 mg/kg/injection, schedule: Q04DX002 (ip), vehicle: Klucel (hydroxypropylcellulose) (HPC) 92 % of control

O=C1c2ccccc2C(=O)C1(Br)C(Cl)c1ccccc1 (configuration not stated)
inactive: [16] 95 % of control | [12] 96 % of control | [17] 101 % of control | [13] 103 % of control | dose: 400.0 mg/kg/injection, schedule: Q01DX009 (ip), vehicle: Klucel (hydroxypropylcellulose) (HPC) 97 % of control | [14] 97 % of control

CCCCCCCCCCCCCCCCCCC1=NCCN1
inactive: dose: 2.34 mg/kg/injection, schedule: Q01DX009 (ip), vehicle: saline 101 % of control | dose: 4.68 mg/kg/injection, schedule: Q01DX009 (ip), vehicle: saline 96 % of control | dose: 9.37 mg/kg/injection, schedule: Q01DX009 (ip), vehicle: saline 86 % of control | dose: 18.75 mg/kg/injection, schedule: Q04DX003 (ip), vehicle: saline 90 % of control | dose: 75.0 mg/kg/injection, schedule: Q01DX001 (ip), vehicle: acetone 97 % of control

NC(CC(O)c1ccccc1)c1ccccc1 (configuration not stated)
inactive: dose: 75.0 mg/kg/injection, schedule: Q01DX001 (ip), vehicle: carboxymethylcellulose (CMC) 96 % of control

O=S(=O)(F)c1cc(CBr)ccc1Cl
inactive: [21] 98 % of control | [22] 95 % of control | [23] 101 % of control

CN(C)[C@@H]1C(=O)C(C(=O)NCNCCCC(=O)O)=C(O)[C@@]2(O)C(=O)C3=C(O)c4c(O)cccc4[C@@](C)(O)[C@H]3C[C@@H]12
inactive: [9] 103 % of control | [18] 105 % of control | [10] 102 % of control | dose: 200.0 mg/kg/injection, schedule: Q04DX003 (ip), vehicle: saline 96 % of control | [11] 94 % of control | dose: 400.0 mg/kg/injection, schedule: Q04DX003 (ip), vehicle: saline 96 % of control

CS(=O)(=O)OC[C@@H]1C2C=CC(C2)[C@@H]1COS(C)(=O)=O
inactive: [24] 107 % of control | [16] 100 % of control | [12] 98 % of control | [17] 104 % of control | [13] 94 % of control | [14] 107 % of control
